Data on 2 compounds can be found in publication PMC4011845, “Stereoselectivity of Isoflurane in Adhesion Molecule Leukocyte Function-Associated Antigen-1” (PLoS ONE, 2014).

Assay [1] has as its target T1, leukocyte function-associated antigen-1 (LFA-1) αL I domain (Homo sapiens, UniProt P20701).
T1 construct: gene ITGAL; αL I domain wild type, residues 128-307 of the integrin αL subunit
T1 sequence (P20701 153-332): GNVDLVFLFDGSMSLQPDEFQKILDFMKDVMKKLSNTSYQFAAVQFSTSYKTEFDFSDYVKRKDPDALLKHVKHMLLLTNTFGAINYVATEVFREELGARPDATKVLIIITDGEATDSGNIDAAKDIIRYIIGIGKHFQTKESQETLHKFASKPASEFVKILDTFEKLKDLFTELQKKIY
In words: 1-aminoanthracene fluorescence displacement; supported by cell-based ICAM-1 binding inhibition.

In assay [2] the target is T2, leukocyte function-associated antigen-1 (LFA-1) (Homo sapiens, UniProt P20701).
T2 construct: gene ITGAL; αL I domain residues 128-307 (fluorescence); with integrin β2 subunit (LFA-1 heterodimer)
T2 sequence (P20701 26-1090 limits assumed): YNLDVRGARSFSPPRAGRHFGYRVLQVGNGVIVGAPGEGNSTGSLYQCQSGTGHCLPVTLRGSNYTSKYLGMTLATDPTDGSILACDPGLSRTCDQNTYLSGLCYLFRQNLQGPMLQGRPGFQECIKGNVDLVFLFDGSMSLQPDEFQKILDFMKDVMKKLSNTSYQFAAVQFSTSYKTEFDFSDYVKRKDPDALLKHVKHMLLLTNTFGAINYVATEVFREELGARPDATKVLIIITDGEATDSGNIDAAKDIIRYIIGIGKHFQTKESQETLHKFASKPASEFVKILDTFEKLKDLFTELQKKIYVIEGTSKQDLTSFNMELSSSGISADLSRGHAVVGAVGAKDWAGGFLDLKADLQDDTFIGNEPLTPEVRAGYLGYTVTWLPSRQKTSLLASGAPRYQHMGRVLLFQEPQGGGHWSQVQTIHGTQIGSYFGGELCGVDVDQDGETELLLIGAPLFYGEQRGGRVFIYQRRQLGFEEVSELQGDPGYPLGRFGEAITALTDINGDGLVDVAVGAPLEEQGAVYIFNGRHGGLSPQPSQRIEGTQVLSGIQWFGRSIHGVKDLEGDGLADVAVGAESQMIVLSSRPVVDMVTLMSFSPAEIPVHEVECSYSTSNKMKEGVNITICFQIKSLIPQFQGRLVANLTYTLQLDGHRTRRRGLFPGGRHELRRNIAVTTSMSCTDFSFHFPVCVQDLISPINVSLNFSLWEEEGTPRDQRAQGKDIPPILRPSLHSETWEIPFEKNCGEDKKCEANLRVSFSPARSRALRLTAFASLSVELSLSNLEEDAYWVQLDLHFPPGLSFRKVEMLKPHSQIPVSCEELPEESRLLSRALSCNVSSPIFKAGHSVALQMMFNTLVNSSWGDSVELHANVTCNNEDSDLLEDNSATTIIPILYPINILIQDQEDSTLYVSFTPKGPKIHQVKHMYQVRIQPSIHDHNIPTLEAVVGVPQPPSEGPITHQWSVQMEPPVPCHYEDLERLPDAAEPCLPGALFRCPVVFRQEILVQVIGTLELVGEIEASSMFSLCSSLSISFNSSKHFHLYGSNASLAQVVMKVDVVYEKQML
T2 sequence (P05107 23-700 partner limits assumed): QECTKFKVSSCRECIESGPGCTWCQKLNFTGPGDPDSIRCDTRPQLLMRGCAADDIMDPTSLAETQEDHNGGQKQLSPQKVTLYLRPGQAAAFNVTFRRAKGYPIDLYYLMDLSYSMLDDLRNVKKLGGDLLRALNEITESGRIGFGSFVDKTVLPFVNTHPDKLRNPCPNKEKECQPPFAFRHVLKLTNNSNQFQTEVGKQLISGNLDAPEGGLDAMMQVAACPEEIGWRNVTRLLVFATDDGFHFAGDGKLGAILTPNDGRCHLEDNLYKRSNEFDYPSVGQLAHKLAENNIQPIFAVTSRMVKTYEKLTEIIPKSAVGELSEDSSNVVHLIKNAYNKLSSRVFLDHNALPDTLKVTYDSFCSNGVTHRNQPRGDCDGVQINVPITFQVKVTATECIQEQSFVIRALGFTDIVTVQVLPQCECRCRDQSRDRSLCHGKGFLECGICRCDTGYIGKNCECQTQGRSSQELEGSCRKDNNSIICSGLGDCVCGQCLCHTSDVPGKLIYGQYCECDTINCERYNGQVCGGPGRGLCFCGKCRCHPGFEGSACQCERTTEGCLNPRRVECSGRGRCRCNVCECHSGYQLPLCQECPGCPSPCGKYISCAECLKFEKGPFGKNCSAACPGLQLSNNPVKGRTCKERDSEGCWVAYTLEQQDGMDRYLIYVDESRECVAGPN
In words: cell-free LFA-1:ICAM-1 binding assay ([…] 1-AMA); fluorescence probe on the αL I domain. The format is biochemical.

As a reminder, the Kd is the free concentration of one partner at which half of the binding sites on the other are occupied at equilibrium, for simple one-to-one binding. On to `FC(F)OC(Cl)C(F)(F)F` (centres unmarked) [S-isoflurane], for which the affinity in assay [1], expressed as Kd, was 375 µM.

Consider `Nc1cccc2cc3ccccc3cc12` [1-AMA, 1-aminoanthracene], for which, in assay [2], the “cell-free LFA-1:ICAM-1 binding assay (10-25 μM 1-AMA); fluorescence probe on the” value is “As shown in Figure 2A , 1-AMA inhibited the binding of LFA-1 to its ligand ICAM-1”.
